Assay results as given in patent US10328053B2 (Gilead Sciences, Inc., priority 2016, dated 2019).

How the values were obtained:
[1] = test system: HBV AD38 viral particles in HepG2 cell line overexpressing NTCP; test: HBV DNA Quantification Assay; assay type: cell-based; details: Hepatitis B virus, HepG2, 120 h, HBV-infected HepG2-NTCP cells, 5 days incubation, HBV DNA in culture supernatant (QuantiGene 2.0); geometric mean of a minimum of four determinations
Method: HBV DNA Quantification Assay
A HepG2 cell line overexpressing the HBV virus attachment receptor sodium-taurocholate cotransporting polypeptide (NTCP) was grown to confluency in DMEM growth medium, Dulbecco's Modified Eagle Medium without sodium pyruvate (Life Technologies, Rockville, Md.) supplemented with 10% FBS (Thermo Scientific, Waltham, Md.), 1% penicillin/streptomycin (Life Technologies, Rockville, Md.) and 2 mM L-glutamine (Life Technologies, Rockville, Md.) in T175 flasks. Cells were infected with HBV AD38 viral particles (Texcell, Frederick, USA) at 4000 genome equivalents per cell. After allowing viral infection to take place for 4 days, the infected cells were harvested from the flasks by trypsinization, washed twice with OptiMEM (Life Technologies, Rockville, Md.) and re-suspended in DMEM containing 2% FBS and 1% DMSO at a density of 0.25E6 cells/ml. Infected cells were seeded on 384 well collagen coated plates (Greiner, Austria) at a density of 20,000 cells/well containing serially diluted compounds of the present disclosure or DMSO (0.5%) in a final volume of 80 μl. The assay plates were incubated for a period of 5 days and the antiviral activity of the test compounds were assayed by detecting the presence of HBV DNA in the culture supernatant using the QuantiGene™ 2.0 nucleic acid quantification kit (Affymetrix, Santa Clara, Calif.).
The culture supernatant was harvested and treated with lysis buffer containing Proteinase K (Affymetrix, Santa Clara, Calif.). The supernatant was incubated with HBV viral DNA specific probes (Affymetrix, Santa Clara, Calif.) for 30 minutes at 55° C. This was followed by addition of 0.2M NaOH for 30 minutes at room temperature to denature the DNA, followed by addition of Neutralization buffer (Affymetrix, Santa Clara, Calif.). The resulting lysed and neutralized supernatant was then added to QuantiGene™ 2.0 384 well plates coated with capture oligonucleotides and incubated overnight at 55° C. The HBV specific probe set consists of Capture Extender oligonucleotides (CE's) and blocking probes. Following the overnight incubation, the wells were incubated for one hour sequentially with a Pre-Amplifier, Amplifier and Labeled probes conjugated to alkaline phosphatase with a wash step between incubations. After the final wash step, the alkaline phosphatase substrate (Luminol APS5) was added and the resulting luminescence signal was read in an EnVision Multilabel Plate Reader (PerkinElmer, Santa Clara, Calif.). The EC50 values were calculated from the fit of the dose—response curves to a four-parameter equation. All EC50 values represent geometric mean values of a minimum of four determinations.

[2] = Hepatic Stability Assay (in vitro half-life method); assay type: in vitro ADME; parameters: dose or concentration left out as unconfirmed; details: pooled cryopreserved hepatocytes, 37° C., 1×10^6 cells/mL, 0-6 hours, LC-MS/MS, 39.5 hours is the maximum detectable half life, read-out: t½ (converted)
Summary of the method: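 Pooled cryopreserved hepatocytes (1×10^6 cells/mL) incubated with compound at […] test concentration, 37° C.; samples at 0, 1, 3 and 6 h quantified by LC-MS/MS. Half-life from rate of compound disappearance, scaled to predicted hepatic clearance via well-stirred model.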

Cc1c(C(=O)C(=O)NC2(c3c[nH]nn3)COC2)c2n(c1C(=O)Nc1ccc(F)c(Cl)c1)CCC2 [Example 88, 7-(2-((3-(1H-1,2,3-triazol-4-yl)oxetan-3-yl)amino)-2-oxoacetyl)-N-(3-chloro-4-fluorophenyl)-6-methyl-2,3-dihydro-1H-pyrrolizine-5-carboxamide]
EC50 [1]: 8.7 nM | half-life [2]: 9.9 h

Cc1c(C(=O)C(=O)NC2(C(F)(F)F)COC2)c2n(c1C(=O)Nc1ccc(F)c(Cl)c1)CCC2 [Example 7, N-(3-chloro-4-fluorophenyl)-6-methyl-7-(2-oxo-2-((3-(trifluoromethyl)oxetan-3-yl)amino)acetyl)-2,3-dihydro-1H-pyrrolizine-5-carboxamide]
EC50 [1]: 5.8 nM | half-life [2]: 4.8 h

Cc1c(C(=O)C(=O)NC2(c3c[nH]nn3)CC(F)(F)C2)c2n(c1C(=O)Nc1ccnc(C(F)F)c1F)[C@@H]1C[C@@H]1C2 [Example 80, (1aR,6aR)-5-(2-((3,3-difluoro-1-(1H-1,2,3-triazol-4-yl)cyclobutyl)amino)-2-oxoacetyl)-N-(2-(difluoromethyl)-3-fluoropyridin-4-yl)-4-methyl-1,1a,6,6a-tetrahydrocyclopropa[b]pyrrolizine-3-carboxamide]
EC50 [1]: 8.7 nM | half-life [2]: 6.3 h

CNC(=O)C1(NC(=O)C(=O)c2c(C)c(C(=O)Nc3cc(F)c(F)c(F)c3)n3c2CCC3)CC(F)(F)C1 [Example 36, 7-(2-((3,3-difluoro-1-(methylcarbamoyl)cyclobutyl)amino)-2-oxoacetyl)-6-methyl-N-(3,4,5-trifluorophenyl)-2,3-dihydro-1H-pyrrolizine-5-carboxamide]
EC50 [1]: 24 nM | half-life [2]: 26.5 h

CNC(=O)C(C)(C)NC(=O)C(=O)c1c(C)c(C(=O)Nc2cc(F)c(F)c(F)c2)n2c1CCC2 [Example 83, 6-methyl-7-(2-((2-methyl-1-(methylamino)-1-oxopropan-2-yl)amino)-2-oxoacetyl)-N-(3,4,5-trifluorophenyl)-2,3-dihydro-1H-pyrrolizine-5-carboxamide]
EC50 [1]: 199 nM | half-life [2]: 19.2 h

Cc1c(C(=O)C(=O)NC2(c3cnn[nH]3)CC2)c2n(c1C(=O)Nc1ccc(F)cc1F)CCC2 [Example 93, 7-(2-((1-(1H-1,2,3-triazol-5-yl)cyclopropyl)amino)-2-oxoacetyl)-N-(2,4-difluorophenyl)-6-methyl-2,3-dihydro-1H-pyrrolizine-5-carboxamide]
EC50 [1]: 254 nM | half-life [2]: 29.9 h

Cc1c(C(=O)C(=O)NC2(c3c[nH]nn3)CC(F)(F)C2)c2n(c1C(=O)Nc1ccc(F)c(F)c1)[C@@H]1C[C@@H]1C2 [Example 42, (1aR,6aR)-5-(2-((3,3-difluoro-1-(1H-1,2,3-triazol-4-yl)cyclobutyl)amino)-2-oxoacetyl)-N-(3,4-difluorophenyl)-4-methyl-1,1a,6,6a-tetrahydrocyclopropa[b]pyrrolizine-3-carboxamide]
EC50 [1]: 2.1 nM | half-life [2]: 3.5 h

CNC(=O)C1(NC(=O)C(=O)c2c(C)c(C(=O)Nc3cc(F)c(F)c(F)c3)n3c2C[C@H]2C[C@H]23)CC(F)(F)C1 [Example 38, (1aR,6aR)-5-(2-((3,3-difluoro-1-(methylcarbamoyl)cyclobutyl)amino)-2-oxoacetyl)-4-methyl-N-(3,4,5-trifluorophenyl)-1,1a,6,6a-tetrahydrocyclopropa[b]pyrrolizine-3-carboxamide]
EC50 [1]: 13 nM | half-life [2]: 13.8 h

Cc1c(C(=O)C(=O)NC2(c3nncs3)CC2)c2n(c1C(=O)Nc1ccc(F)c(Cl)c1)CCC2 [Example 12, 7-(2-((1-(1,3,4-thiadiazol-2-yl)cyclopropyl)amino)-2-oxoacetyl)-N-(3-chloro-4-fluorophenyl)-6-methyl-2,3-dihydro-1H-pyrrolizine-5-carboxamide]
EC50 [1]: 5 nM | half-life [2]: 6.4 h

Cc1c(C(=O)C(=O)NC2(C(=O)N3CC4(COC4)C3)CC(F)(F)C2)c2n(c1C(=O)Nc1ccc(F)c(Cl)c1)CCC2 [Example 27, N-(3-chloro-4-fluorophenyl)-7-(2-((3,3-difluoro-1-(2-oxa-6-azaspiro[3.3]heptane-6-carbonyl)cyclobutyl)amino)-2-oxoacetyl)-6-methyl-2,3-dihydro-1H-pyrrolizine-5-carboxamide]
EC50 [1]: 32.3 nM | half-life [2]: 0.9 h

Cc1c(C(=O)C(=O)NC2(C(=O)N3CCC34COC4)CC(F)(F)C2)c2n(c1C(=O)Nc1ccc(F)c(Cl)c1)CCC2 [Example 11, N-(3-chloro-4-fluorophenyl)-7-(2-((3,3-difluoro-1-(6-oxa-1-azaspiro[3.3]heptane-1-carbonyl)cyclobutyl)amino)-2-oxoacetyl)-6-methyl-2,3-dihydro-1H-pyrrolizine-5-carboxamide]
EC50 [1]: 7.7 nM | half-life [2]: 0.7 h

CNC(=O)C1(NC(=O)C(=O)c2c(C)c(C(=O)Nc3ccc(F)c(Cl)c3)n3c2[C@H]2C[C@H]2C3)CC(F)(F)C1 [Example 34, (1aR,6bS)—N-(3-chloro-4-fluorophenyl)-6-(2-((3,3-difluoro-1-(methylcarbamoyl)cyclobutyl)amino)-2-oxoacetyl)-5-methyl-1,1a,2,6b-tetrahydrocyclopropa[a]pyrrolizine-4-carboxamide]
EC50 [1]: 202 nM | half-life [2]: 18.1 h

Cc1c(C(=O)C(=O)NC2(c3cnn[nH]3)CC2)c2n(c1C(=O)Nc1cccc(OC(F)(F)F)c1)CCC2 [Example 85, 7-(2-((1-(1H-1,2,3-triazol-5-yl)cyclopropyl)amino)-2-oxoacetyl)-6-methyl-N-(3-(trifluoromethoxy)phenyl)-2,3-dihydro-1H-pyrrolizine-5-carboxamide]
EC50 [1]: 294 nM

Cc1c(C(=O)C(=O)NC2(c3c[nH]nn3)CC(F)(F)C2)c2n(c1C(=O)Nc1ccc(F)c(C#N)c1)CCC2 [Example 37, N-(3-cyano-4-fluorophenyl)-7-(2-((3,3-difluoro-1-(1H-1,2,3-triazol-4-yl)cyclobutyl)amino)-2-oxoacetyl)-6-methyl-2,3-dihydro-1H-pyrrolizine-5-carboxamide]
EC50 [1]: 5.6 nM | half-life [2]: 10.9 h

CNC(=O)C1(NC(=O)C(=O)c2c(C)c(C(=O)Nc3ccc(F)c(Cl)c3)n3c2CCC3)CC1 [Example 105, N-(3-chloro-4-fluorophenyl)-6-methyl-7-(2-((1-(methylcarbamoyl)cyclopropyl)amino)-2-oxoacetyl)-2,3-dihydro-1H-pyrrolizine-5-carboxamide]
EC50 [1]: 170 nM | half-life [2]: 24.3 h

C#CC1(NC(=O)C(=O)c2c(C)c(C(=O)Nc3ccc(F)c(Cl)c3)n3c2CCC3)CC1 [Example 94, N-(3-chloro-4-fluorophenyl)-7-(2-((1-ethynylcyclopropyl)amino)-2-oxoacetyl)-6-methyl-2,3-dihydro-1H-pyrrolizine-5-carboxamide]
EC50 [1]: 5.8 nM | half-life [2]: 2.9 h

CNC(=O)[C@@H](NC(=O)C(=O)c1c(C)c(C(=O)Nc2ccc(F)c(Cl)c2)n2c1CCC2)C(C)C [Example 128, (S)—N-(3-chloro-4-fluorophenyl)-6-methyl-7-(2-((3-methyl-1-(methylamino)-1-oxobutan-2-yl)amino)-2-oxoacetyl)-2,3-dihydro-1H-pyrrolizine-5-carboxamide]
EC50 [1]: 170 nM

CC(C)(C)NC(=O)C(=O)c1c(Cl)c(C(=O)Nc2ccc(F)c(C#N)c2)n2c1CCC2 [Example 1, 7-(2-(tert-Butylamino)-2-oxoacetyl)-6-chloro-N-(3-cyano-4-fluorophenyl)-2,3-dihydro-1H-pyrrolizine-5-carboxamide]
EC50 [1]: 27.1 nM

Cc1c(C(=O)C(=O)NC2(c3ccccc3)CC2)c2n(c1C(=O)Nc1cc(F)c(F)c(F)c1)CCC2 [Example 67, 6-methyl-7-(2-oxo-2-((1-phenylcyclopropyl)amino)acetyl)-N-(3,4,5-trifluorophenyl)-2,3-dihydro-1H-pyrrolizine-5-carboxamide]
EC50 [1]: 6.5 nM

Cc1c(C(=O)C(=O)NC23CC(C(N)=O)(C2)C3)c2n(c1C(=O)Nc1ccc(F)c(Cl)c1)CCC2 [Example 106, 7-(2-((3-carbamoylbicyclo[1.1.1]pentan-1-yl)amino)-2-oxoacetyl)-N-(3-chloro-4-fluorophenyl)-6-methyl-2,3-dihydro-1H-pyrrolizine-5-carboxamide]
EC50 [1]: 124 nM
